Results on 14 compounds are retold here after US9133104B2 (Chroma Therapeutics Ltd., priority 2005, dated 2015).

This assay has as its target T1, histone deacetylase activity (HeLa nuclear extract).
T1 construct: Histone deacetylase activity from crude nuclear extract derived from HeLa cells was used for screening
The experiment in a line: HDAC fluorescent activity assay (Biomol Fluor de Lys), HeLa nuclear extract. Conditions: Fluor de Lys substrate, IC50 range. Format: biochemical. The protocol:
The ability of compounds to inhibit histone deacetylase activities was measured using the commercially available HDAC fluorescent activity assay from Biomol. In brief, the Fluor de Lys™ substrate, a lysine with an epsilon-amino acetylation, is incubated with the source of histone deacetylase activity (HeLa nuclear extract) in the presence or absence of inhibitor. Deacetylation of the substrate sensitises the substrate to Fluor de Lys™ developer, which generates a fluorophore. Thus, incubation of the substrate with a source of HDAC activity results in an increase in signal that is diminished in the presence of an HDAC inhibitor.
Data are expressed as a percentage of the control, measured in the absence of inhibitor, with background signal being subtracted from all samples, as follows:— % activity=((S^i−B)/(S^o−B))×100 where S^i is the signal in the presence of substrate, enzyme and inhibitor, S^o is the signal in the presence of substrate, enzyme and the vehicle in which the inhibitor is dissolved, and B is the background signal measured in the absence of enzyme.
IC50 values were determined by non-linear regression analysis, after fitting the results of eight data points to the equation for sigmoidal dose response with variable slope (% activity against log concentration of compound), using Graphpad Prism software.
Histone deacetylase activity from crude nuclear extract derived from HeLa cells was used for screening. The preparation, purchased from 4C (Seneffe, Belgium), was prepared from HeLa cells harvested whilst in exponential growth phase. The nuclear extract is prepared according to Dignam JD1983 Nucl. Acid. Res. 11, 1475-1489, snap frozen in liquid nitrogen and stored at −80° C. The final buffer composition was 20 mM Hepes, 100 mM KCl, 0.2 mM EDTA, 0.5 mM DTT, 0.2 mM PMSF and 20% (v/v) glycerol.

What is called IC50 is the concentration that inhibits the measured activity by half.

A value given as a limit tells only on which side of the number the result lay.

In the case of `CC(C)C[C@H](NCc1cccc(NC(=O)CCCCCCC(=O)NO)c1)C(=O)O` [Compound 38, (S)-2-[3-(7-Hydroxycarbamoyl-heptanoylamino)-benzylamino]-4-methyl-pentanoic acid], the IC50 fell in the range of 101 to 1000 nM.
For the compound `CC(C)C[C@H](NC(=O)c1cccc(NC(=O)CCCCCCC(=O)NO)c1)C(=O)O` [Compound 63, (S)-2-[3-(7-Hydroxycarbamoyl-heptanoylamino)-benzoylamino]-4-methyl-pentanoic acid], the IC50 is 101 to 1000 nM.
For `O=C(CCCCCCC(=O)Nc1cccc(CCN[C@H](C(=O)O)c2ccccc2)c1)NO` [Compound 72, (S)-{2-[3-(7-Hydroxycarbamoyl-heptanoylamino)-phenyl]-ethylamino}-phenyl-acetic acid] the value was less than 100 nM.
Regarding `O=C(CCCCCCC(=O)Nc1cccc(OCCN[C@@H](Cc2ccccc2)C(=O)O)c1)NO` [Compound 74, (S)-2-{2-[3-(7-Hydroxycarbamoyl-heptanoylamino)-phenoxy]-ethylamino}-3-phenyl-propionic acid], the IC50 fell in the range of 101 to 1000 nM.
For `O=C(CCCCCCC(=O)Nc1cccc(OCCCN[C@@H](Cc2ccccc2)C(=O)O)c1)NO` [Compound 76, (S)-2-{3-[3-(7-Hydroxycarbamoyl-heptanoylamino)-phenoxy]-propylamino}-3-phenyl-propionic acid] the value was less than 100 nM.
For `O=C(CCCCCCC(=O)Nc1cccc(CNC(=O)N[C@H](C(=O)O)c2ccccc2)c1)NO` [Compound 80, (S)-{3-[3-(7-Hydroxycarbamoyl-heptanoylamino)-benzyl]-ureido}-phenyl-acetic acid] the value was 101 to 1000 nM; for `O=C(CCCCCCC(=O)Nc1cccc(CNC(=O)N[C@@H](Cc2ccccc2)C(=O)O)c1)NO` [Compound 82, (S)-2-{3-[3-(7-Hydroxycarbamoyl-heptanoylamino)-benzyl]-ureido}-3-phenyl-propionic acid], 101 to 1000 nM; for `O=C(CCCCCCC(=O)Nc1ccc(CN[C@@H](C(=O)O)c2ccccc2)cc1)NO` [Compound 84, (R)-[4-(7-Hydroxycarbamoyl-heptanoylamino)-benzylamino]-phenyl-acetic acid], 101 to 1000 nM.
For `O=C(CCCCCCC(=O)Nc1ccc(CN[C@H](C(=O)O)C2CCCCC2)cc1)NO` [Compound 87, (S)-Cyclohexyl-[4-(7-hydroxycarbamoyl-heptanoylamino)-benzylamino]-acetic acid] the value was less than 100 nM.
On to `CC(C)(C)OC[C@H](NCc1ccc(NC(=O)CCCCCCC(=O)NO)cc1)C(=O)O` [Compound 90, (S)-3-tert-Butoxy-2-[4-(7-hydroxycarbamoyl-heptanoylamino)-benzylamino]-propionic acid], for which the IC50 fell in the range of 101 to 1000 nM.
`O=C(CCCCCCC(=O)Nc1cccc(OCCCC(=O)N[C@H](C(=O)O)c2ccccc2)c1)NO` [Compound 93, (S)-{4-[3-(7-Hydroxycarbamoyl-heptanoylamino)-phenoxy]-butyrylamino}-phenyl-acetic acid] gave an IC50 of less than 100 nM.
For `O=C(CCCCCCC(=O)Nc1cccc(COC(=O)N[C@@H](Cc2ccccc2)C(=O)O)c1)NO` [Compound 95, (S)-2-[3-(7-Hydroxycarbamoyl-heptanoylamino)-benzyloxycarbonylamino]3-phenyl-propionic acid] the value was 101 to 1000 nM.
Compound `CC(C)C[C@H](NC(=O)[C@@H]1Cc2ccc(NC(=O)CCCCCCC(=O)NO)cc2CN1)C(=O)O` [Compound 97, (S)-2-{[(S)-7-(7-Hydroxycarbamoyl-heptanoylamino)-1,2,3,4-tetrahydro-isoquinoline-3-carbonyl]-amino}-4-methyl-pentanoic acid] came in with an IC50 of 101 to 1000 nM.
For `CC(C)C[C@H](NC(=O)c1ccc(NC(=O)CCCCCCC(=O)NO)cc1)C(=O)O` [Compound 99, (S)-2-[4-(7-Hydroxycarbamoyl-heptanoylamino)-benzoylamino]-4-methyl-pentanoic acid] the value was greater than 1000 nM.
